# Measured values from patent publication US20070172436A1 (priority 2006, published 2007).
# Tests used:
# [1] = co-pending application Ser. No. 11/242,306; cited from earlier work
# [2] = Solubilization of ascorbic acid in absolute ethanol at room temperature, with or without urea; conditions: 2.00% urea, 95.50% ethanol, stirring about 16 hours
# Procedure: The solubilization process was conducted at room temperature.
# The mixture was kept at room temperature, while stirring until dissolved. Vitamin E acetate was added to the mixture. Vitamin E acetate was solubilized in the mixture.
# [3] = Solubilization of ascorbic acid in propylene glycol at room temperature, with or without urea; assay type: physicochemical; conditions: 7.0% ascorbic acid, 5.0% urea, 88.0% propylene glycol, stirring about 16 hours
# Procedure: The solubilization process was carried out at room temperature.
# The two sets of experiments (EXAMPLE 5 and EXAMPLE 6) were carried out side by side for comparison.
Structure (SMILES),concentration of dissolved ascorbic acid in nonaqueous alcohol solvents with urea and/or urea derivatives [1],dissolution in absolute ethanol [2],dissolution in propylene glycol [3]
"O=C1O[C@H]([C@@H](O)CO)C(O)=C1O [ascorbic acid, L-ascorbic acid]",≤ 28 % by weight,–,–
"NC(N)=O [urea, Urea]",–,completely dissolved,completely dissolved
